# Tested on: HPRT gene
# Assay: Hprt mutation assay in synchronized CHO cells
# Format: cell-based, Chinese Hamster
# Method: Synchronization protocol: Chinese Hamster Ovary (CHO) AA8 cells (ATCC) were prepared as described above for the HPRT knockout assay. The cells were synchronized in G0/G1 by a variation of the method described by Sawai et al. (96). Briefly, cells were plated at subconfluent levels and the next day the medium changed to DMEM with 2% FBS and 2% DMSO. After 48 h the cells were washed (˜85% G0/G1 cells by FACS analysis) and either electroporated or fed with complete medium (for G1 phase experiments), or incubated with complete medium containing 100 μM mimosine for 16 hrs to block them in early S phase (˜90% early S cells). See Orren et al. for complete details on this procedure (49). After 16 hrs the cells were released from the mimosine block by feeding with DMEM/10% FBS. TFO electroporation, Psoralen treatment, and Hprt mutation assay: Cells were suspended at 10^7/mL and mixed with TFO at 5 μM. The cells were electroporated (BioRad), followed by incubation at room temperature for 3 hrs, and a 3 min exposure in a Rayonet chamber to UVA light at 1.8 J/cm^2. […] Cells treated with free psoralen were incubated with 5 μM psoralen for 30 min, followed by UVA treatment. The cells were passaged and then exposed to thioguanine (TG) selection (43).
compound,measurement,setting,value
O=c1ccc2cc3ccoc3cc2o1 [psoralen],frequency of thioguanine resistant colonies,"5 μM free psoralen 30 min, UVA, different phases of cell cycle, background 0.001%",0.004-0.005%
same,cell cycle variability of mutation frequency,free psoralen/UVA,essentially unchanged across the cell cycle

# From patent US20040009602A1, “DNA modifying molecules and methods of use thereof” (The Government of the U.S.A. as represented by the …, priority 2002, published 2004)
